Experiments:
[1] = molecular target: T1, Endothelin receptor type B (Homo sapiens, UniProt P24530); assay: Antagonist activity towards human recombinant Endothelin B receptor expressed in chinese hamster ovary (CHO) cells determined using [125I]ET1 as radioligand; format: functional, cell-based
T1 sequence (P24530 whole entry): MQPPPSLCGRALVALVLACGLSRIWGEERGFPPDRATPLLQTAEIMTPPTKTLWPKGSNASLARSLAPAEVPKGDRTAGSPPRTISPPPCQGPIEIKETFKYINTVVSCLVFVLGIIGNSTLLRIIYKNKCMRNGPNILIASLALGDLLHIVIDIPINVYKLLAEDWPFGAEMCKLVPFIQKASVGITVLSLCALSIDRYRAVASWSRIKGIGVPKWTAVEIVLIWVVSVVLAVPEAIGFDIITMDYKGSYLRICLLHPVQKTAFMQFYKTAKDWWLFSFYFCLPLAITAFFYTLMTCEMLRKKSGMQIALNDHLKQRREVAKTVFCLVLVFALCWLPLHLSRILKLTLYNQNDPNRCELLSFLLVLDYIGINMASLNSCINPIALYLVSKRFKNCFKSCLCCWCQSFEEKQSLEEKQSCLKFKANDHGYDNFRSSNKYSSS

Endothelin-1 receptor = molecular target: T2, Endothelin-1 receptor (Homo sapiens, UniProt P25101); assay: Antagonist activity towards human recombinant Endothelin A receptor expressed in chinese hamster ovary (CHO) cells determined using [125I]ET1 as radioligand; format: functional, cell-based
T2 sequence (P25101 whole entry): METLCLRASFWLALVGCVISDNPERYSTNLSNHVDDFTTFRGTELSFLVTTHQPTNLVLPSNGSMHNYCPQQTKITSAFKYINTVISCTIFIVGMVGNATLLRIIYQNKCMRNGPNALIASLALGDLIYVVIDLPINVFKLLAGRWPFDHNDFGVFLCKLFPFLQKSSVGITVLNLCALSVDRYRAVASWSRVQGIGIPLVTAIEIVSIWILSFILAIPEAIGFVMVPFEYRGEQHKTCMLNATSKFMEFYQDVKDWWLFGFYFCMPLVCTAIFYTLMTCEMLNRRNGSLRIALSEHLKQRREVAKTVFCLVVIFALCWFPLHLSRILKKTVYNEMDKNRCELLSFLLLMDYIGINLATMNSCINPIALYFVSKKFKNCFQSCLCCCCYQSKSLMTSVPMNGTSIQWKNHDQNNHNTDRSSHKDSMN

Endothelin receptor = molecular target: T3, Endothelin receptor (Rattus norvegicus, UniProt P26684+P21451); assay: Inhibitory potency at native endothelin A and endothelin B receptors by inhibiting endothelin-1 contractions of rat aortic rings; format: functional
T3 sequence (P26684 whole entry): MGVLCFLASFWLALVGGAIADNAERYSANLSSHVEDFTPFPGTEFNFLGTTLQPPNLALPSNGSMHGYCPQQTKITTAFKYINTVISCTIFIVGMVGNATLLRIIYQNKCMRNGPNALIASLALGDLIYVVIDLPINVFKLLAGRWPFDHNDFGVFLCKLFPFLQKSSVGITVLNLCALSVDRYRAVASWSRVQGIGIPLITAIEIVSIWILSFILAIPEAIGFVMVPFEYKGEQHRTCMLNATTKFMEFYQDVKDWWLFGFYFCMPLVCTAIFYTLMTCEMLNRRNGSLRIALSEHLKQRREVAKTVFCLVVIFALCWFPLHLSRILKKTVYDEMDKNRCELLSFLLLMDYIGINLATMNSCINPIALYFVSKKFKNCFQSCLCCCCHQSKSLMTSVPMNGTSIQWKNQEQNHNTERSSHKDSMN
T3 sequence (P21451 whole entry): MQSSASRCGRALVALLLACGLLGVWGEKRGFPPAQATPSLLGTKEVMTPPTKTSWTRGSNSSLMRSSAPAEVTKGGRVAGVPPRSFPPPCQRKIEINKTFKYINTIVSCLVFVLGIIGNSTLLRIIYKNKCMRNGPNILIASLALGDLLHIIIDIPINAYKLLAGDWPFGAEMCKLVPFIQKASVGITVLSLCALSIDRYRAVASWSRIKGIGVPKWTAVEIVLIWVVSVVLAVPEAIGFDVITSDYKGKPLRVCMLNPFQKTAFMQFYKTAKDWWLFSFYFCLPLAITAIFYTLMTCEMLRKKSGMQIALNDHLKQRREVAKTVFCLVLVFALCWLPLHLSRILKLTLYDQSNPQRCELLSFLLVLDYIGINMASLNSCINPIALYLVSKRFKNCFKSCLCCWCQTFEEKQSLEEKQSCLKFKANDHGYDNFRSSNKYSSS

IC50 [1] [nM] | IC50 (Endothelin-1 receptor) [nM] | pA2 (Endothelin receptor) | SMILES
> 10000 | 6600 |  | CSc1cnc(O[C@H](C(=O)O)[C@@]2(c3ccccc3)NCC(=O)N(C)c3ccccc32)nc1 (racemic)
49.7 | 5.9 | 7.46 | Cc1cc(C)nc(O[C@H](C(=O)O)[C@@]2(c3ccccc3)NCC(=O)N(Cc3ccc(F)cc3)c3ccccc32)n1 (racemic)
70.3 | 7.4 | 6.98 | COC(=O)c1ccc(CN2C(=O)CN[C@](c3ccccc3)([C@H](Oc3nc(C)cc(C)n3)C(=O)O)c3ccccc32)cc1 (racemic)
86.8 | 3 | 7.28 | COc1ccc(CN2C(=O)CN[C@](c3cccc(-c4ccccc4)c3)([C@H](Oc3nc(C)cc(C)n3)C(=O)O)c3ccccc32)cc1 (racemic)
94.3 | 10.2 |  | COc1ccc(CN2C(=O)CN[C@](c3cccc(OC)c3)([C@H](Oc3nc(C)cc(C)n3)C(=O)O)c3ccccc32)cc1 (racemic)
22.4 |  | 7.08 | COc1ccc(CN2C(=O)CN[C@](c3ccccc3)([C@H](Oc3nc(C)cc(C)n3)C(=O)O)c3ccccc32)cc1 (racemic)
654 | 20.5 |  | CCc1cc(CC)nc(O[C@H](C(=O)O)[C@@]2(c3ccccc3)NCC(=O)N(C)c3ccccc32)n1 (racemic)
21.4 | 5.8 |  | Cc1cc(C)nc(O[C@H](C(=O)O)[C@@]2(c3ccccc3)NCC(=O)N(Cc3cccc(Cl)c3)c3ccccc32)n1 (racemic)
105 | 112 |  | COc1ccc(CN2C(=O)CN[C@](C3CCCCC3)([C@H](Oc3nc(C)cc(C)n3)C(=O)O)c3ccccc32)cc1 (racemic)
17.7 | 1.1 | 7.83 | Cc1cc(C)nc(O[C@H](C(=O)O)[C@@]2(c3ccccc3)NCC(=O)N(Cc3c(F)cccc3F)c3ccccc32)n1 (racemic)
73.6 | 355 |  | CCCCC[C@]1([C@H](Oc2nc(C)cc(C)n2)C(=O)O)NCC(=O)N(Cc2ccc(OC)cc2)c2ccccc21 (racemic)
6.6 | 1.8 | 8.55 | Cc1cc(C)nc(O[C@H](C(=O)O)[C@@]2(c3ccccc3)NCC(=O)N(Cc3c(Cl)cccc3Cl)c3ccccc32)n1 (racemic)
11.1 | 3.5 | 7.84 | CCCCc1ccc(CN2C(=O)CN[C@](c3ccccc3)([C@H](Oc3nc(C)cc(C)n3)C(=O)O)c3ccccc32)cc1 (racemic)
72.7 | 7.2 |  | Cc1cc(C)nc(O[C@H](C(=O)O)[C@@]2(c3ccccc3)NCC(=O)N(Cc3cc(F)c(F)cc3F)c3ccccc32)n1 (racemic)
32.8 | 6.5 |  | Cc1cc(C)nc(O[C@H](C(=O)O)[C@@]2(c3ccccc3)NCC(=O)N(Cc3ccc(F)c(F)c3)c3ccccc32)n1 (racemic)
10.9 |  | 7.8 | Cc1cc(C)nc(O[C@H](C(=O)O)[C@@]2(c3ccccc3)NCC(=O)N(Cc3c(F)cccc3Cl)c3ccccc32)n1 (racemic)
32.2 | 2.5 | 7.59 | Cc1cc(C)nc(O[C@H](C(=O)O)[C@@]2(c3ccccc3)NCC(=O)N(Cc3ccc(OC(F)(F)F)cc3)c3ccccc32)n1 (racemic)
47.1 | 17 |  | Cc1cc(C)nc(O[C@H](C(=O)O)[C@@]2(c3ccccc3)NCC(=O)N(Cc3ccc(C(F)(F)F)cc3)c3ccccc32)n1 (racemic)

IC50 [1] [nM] | IC50 (Endothelin-1 receptor) [nM] | pA2 (Endothelin receptor) | SMILES
534 | 102 |  | Cc1cc(C)nc(O[C@H](C(=O)O)[C@@]2(c3ccccc3)NCC(=O)N(Cc3ccc(-c4ccccc4)cc3)c3ccccc32)n1 (racemic)
13.2 | 2.4 | 8.38 | Cc1cc(C)nc(O[C@H](C(=O)O)[C@@]2(c3ccccc3)NCC(=O)N(Cc3c(F)ccc(F)c3F)c3ccccc32)n1 (racemic)
1470 | 129 |  | COc1cccc(O[C@H](C(=O)O)[C@@]2(c3ccccc3)NCC(=O)N(Cc3c(Cl)cccc3Cl)c3ccccc32)c1 (racemic)
966 | 156 |  | Cc1ccc(O[C@H](C(=O)O)[C@@]2(c3ccccc3)NCC(=O)N(Cc3c(Cl)cccc3Cl)c3ccccc32)cc1 (racemic)
153 | 146 |  | Cc1cc(C)nc(O[C@H](C(=O)O)[C@@]2(c3ccccc3)NCC(=O)N(CCC3CCCCC3)c3ccccc32)n1 (racemic)
25.3 | 11.8 |  | Cc1cc(C)nc(O[C@H](C(=O)O)[C@@]2(c3ccccc3)NCC(=O)N(Cc3cc(F)c(F)c(F)c3)c3ccccc32)n1 (racemic)
745 | 29 |  | Cc1cccc(O[C@H](C(=O)O)[C@@]2(c3ccccc3)NCC(=O)N(Cc3c(Cl)cccc3Cl)c3ccccc32)c1 (racemic)
39.9 | 23.7 | 6.71 | CCCCCCN1C(=O)CN[C@](c2ccccc2)([C@H](Oc2nc(C)cc(C)n2)C(=O)O)c2ccccc21 (racemic)
33.2 | 7.3 | 6.53 | COc1ccc(CN2C(=O)CN[C@](c3ccc(F)c(C)c3)([C@H](Oc3nc(C)cc(C)n3)C(=O)O)c3ccccc32)cc1 (racemic)
65.6 | 6.6 | 6.99 | Cc1cc(C)nc(O[C@H](C(=O)O)[C@@]2(c3ccccc3)NCC(=O)N(Cc3nn[nH]n3)c3ccccc32)n1 (racemic)
47.4 | 6.4 | 7.32 | Cc1cc(C)nc(O[C@H](C(=O)O)[C@@]2(c3ccccc3)NCC(=O)N(Cc3ccccc3)c3ccccc32)n1 (racemic)
1810 | 262 |  | COc1cc(OC)cc(O[C@H](C(=O)O)[C@@]2(c3ccccc3)NCC(=O)N(C)c3ccc(Cl)cc32)c1 (racemic)
21.5 | 3.9 | 7.46 | Cc1cc(C)nc(O[C@H](C(=O)O)[C@@]2(c3ccccc3)NCC(=O)N(CCc3ccccc3)c3ccccc32)n1 (racemic)
743 | 126 |  | Cc1cc(C)nc(O[C@H](C(=O)O)[C@@]2(c3ccccc3)NCC(=O)N(CCN3CCOCC3)c3ccccc32)n1 (racemic)
78.2 | 25 |  | COc1ccc(CN2C(=O)CN[C@](c3cccc(Cl)c3)([C@H](Oc3nc(C)cc(C)n3)C(=O)O)c3ccccc32)cc1 (racemic)
74.9 | 98.6 |  | Cc1cc(C)nc(O[C@H](C(=O)O)[C@@]2(c3ccccc3)NCC(=O)N(Cc3ccccc3OC(F)(F)F)c3ccccc32)n1 (racemic)
33.1 | 3.5 | 7.22 | Cc1cc(C)nc(O[C@H](C(=O)O)[C@@]2(c3ccccc3)NCC(=O)N(Cc3ccccc3F)c3ccccc32)n1 (racemic)
68 | 3.1 | 7.55 | CCc1cccc([C@]2([C@H](Oc3nc(C)cc(C)n3)C(=O)O)NCC(=O)N(Cc3ccc(OC)cc3)c3ccccc32)c1 (racemic)

SMILES | IC50 [1] [nM] | IC50 (Endothelin-1 receptor) [nM] | pA2 (Endothelin receptor)
Cc1cc(C)nc(O[C@H](C(=O)O)[C@@]2(c3ccccc3)NCC(=O)N(CCO)c3ccccc32)n1 (racemic) | 108 | 6.9 | 6.79
Cc1cc(C)nc(O[C@H](C(=O)O)[C@@]2(c3ccccc3)NCc3c(C(=O)O)nc(C)n3-c3ccccc32)n1 (racemic) | 711 | 604 | 
